Measured values published in PubChem BioAssay (NCI).
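Cultured in 96-well plates, cells were exposed to test compound for 48 hours across five concentrations. GI50: concentration for 50% inhibition of growth. TGI denotes the concentration required for complete inhibition of growth.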

Legend:
Test in all cases: NCI tumour cell line growth inhibition, 48 h
SW-620 colon = system: SW-620 colon
ACHN renal = system: ACHN renal
A549 NSCLC = system: A549 NSCLC
OVCAR-5 ovarian = system: OVCAR-5 ovarian
SK-MEL-2 melanoma = system: SK-MEL-2 melanoma
LOX IMVI melanoma = system: LOX IMVI melanoma
MDA-MB-231 breast = system: MDA-MB-231 breast
M14 melanoma = system: M14 melanoma
RPMI-8226 leukemia = system: RPMI-8226 leukemia
SF-268 CNS = system: SF-268 CNS
SF-295 CNS = system: SF-295 CNS
SNB-19 CNS = system: SNB-19 CNS
786-0 renal = system: 786-0 renal
K-562 leukemia = system: K-562 leukemia
BT-549 breast = system: BT-549 breast
KM12 colon = system: KM12 colon
T-47D breast = system: T-47D breast
UACC-62 melanoma = system: UACC-62 melanoma
NCI-H226 lung = system: NCI-H226 lung
UACC-257 melanoma = system: UACC-257 melanoma
HT29 colon = system: HT29 colon
UO-31 renal = system: UO-31 renal
SK-OV-3 ovarian = system: SK-OV-3 ovarian
SK-MEL-5 melanoma = system: SK-MEL-5 melanoma
MDA-MB-435 = system: MDA-MB-435
PC-3 prostate = system: PC-3 prostate
CCRF-CEM leukemia = system: CCRF-CEM leukemia
HCT-116 colon = system: HCT-116 colon
HCT-15 colon = system: HCT-15 colon
OVCAR-4 ovarian = system: OVCAR-4 ovarian
NCI-H522 lung = system: NCI-H522 lung
NCI-H23 lung = system: NCI-H23 lung
MCF7 breast = system: MCF7 breast
OVCAR-8 ovarian = system: OVCAR-8 ovarian
MALME-3M melanoma = system: MALME-3M melanoma
OVCAR-3 ovarian = system: OVCAR-3 ovarian
SR leukemia = system: SR leukemia
U251 CNS = system: U251 CNS
TK-10 renal = system: TK-10 renal
SK-MEL-28 melanoma = system: SK-MEL-28 melanoma
NCI-H460 lung = system: NCI-H460 lung
HOP-62 NSCLC = system: HOP-62 NSCLC
IGROV1 ovarian = system: IGROV1 ovarian
SN12C renal = system: SN12C renal
HOP-92 NSCLC = system: HOP-92 NSCLC
COLO 205 colon = system: COLO 205 colon
CAKI-1 renal = system: CAKI-1 renal
NCI/ADR-RES ovarian = system: NCI/ADR-RES ovarian
HCC-2998 colon = system: HCC-2998 colon
A498 renal = system: A498 renal
EKVX NSCLC = system: EKVX NSCLC
RXF 393 renal = system: RXF 393 renal
HL-60(TB) leukemia = system: HL-60(TB) leukemia
MOLT-4 leukemia = system: MOLT-4 leukemia
SNB-75 CNS = system: SNB-75 CNS
SF-539 CNS = system: SF-539 CNS
DU-145 prostate = system: DU-145 prostate

`CC[C@]12C=CCN3CC[C@]4(C(=C(C(=O)OC)C1)Nc1cc(OC)c(OC(C)=O)cc14)[C@@H]32` gave a GI50 (SW-620 colon) of 0.319 µM, a TGI (SW-620 colon) of 10.5 µM and a GI50 (ACHN renal) of 0.176 µM. It also gave a TGI (ACHN renal) of 2.62 µM, a GI50 (A549 NSCLC) of 0.397 µM and a TGI (A549 NSCLC) of 19 µM. For the same molecule, the GI50 (OVCAR-5 ovarian) was 0.719 µM, the TGI (OVCAR-5 ovarian) was 16.2 µM and the GI50 (SK-MEL-2 melanoma) was 0.689 µM. It also gave a TGI (SK-MEL-2 melanoma) of 23 µM, a GI50 (LOX IMVI melanoma) of 0.254 µM and a TGI (LOX IMVI melanoma) of 1.27 µM. The GI50 (MDA-MB-231 breast) was 0.389 µM, the TGI (MDA-MB-231 breast) was 14.5 µM and the GI50 (M14 melanoma) was 0.181 µM. The TGI (M14 melanoma) was 0.684 µM, the GI50 (RPMI-8226 leukemia) was 0.478 µM and the TGI (RPMI-8226 leukemia) was 12.3 µM. For the same molecule, the GI50 (SF-268 CNS) was 0.399 µM, the TGI (SF-268 CNS) was 13.2 µM and the GI50 (SF-295 CNS) was 0.377 µM. For the same molecule, the TGI (SF-295 CNS) was 14.6 µM, the GI50 (SNB-19 CNS) was 0.591 µM and the TGI (SNB-19 CNS) was 21.5 µM. The GI50 (786-0 renal) was 0.318 µM, the TGI (786-0 renal) was 10 µM and the GI50 (K-562 leukemia) was 0.274 µM. The TGI (K-562 leukemia) was 15.4 µM, the GI50 (BT-549 breast) was 0.244 µM and the TGI (BT-549 breast) was 0.674 µM. It also gave a GI50 (KM12 colon) of 0.303 µM, a TGI (KM12 colon) of 2.64 µM and a GI50 (T-47D breast) of 1.42 µM. For the same molecule, the TGI (T-47D breast) was 17.8 µM, the GI50 (UACC-62 melanoma) was 0.326 µM and the TGI (UACC-62 melanoma) was 3.08 µM. For the same molecule, the GI50 (NCI-H226 lung) was 0.917 µM, the TGI (NCI-H226 lung) was 21.9 µM and the GI50 (UACC-257 melanoma) was 1.97 µM. The TGI (UACC-257 melanoma) was 17.5 µM, the GI50 (HT29 colon) was 1.86 µM and the TGI (HT29 colon) was 11 µM. It also gave a GI50 (UO-31 renal) of 0.483 µM, a TGI (UO-31 renal) of 5.6 µM and a GI50 (SK-OV-3 ovarian) of 0.325 µM. For the same molecule, the TGI (SK-OV-3 ovarian) was 12.5 µM, the GI50 (SK-MEL-5 melanoma) was 0.209 µM and the TGI (SK-MEL-5 melanoma) was 0.481 µM. The GI50 (MDA-MB-435) was 0.1 µM, the TGI (MDA-MB-435) was 0.319 µM and the GI50 (PC-3 prostate) was 0.384 µM. It also gave a TGI (PC-3 prostate) of 15.2 µM, a GI50 (CCRF-CEM leukemia) of 0.38 µM and a TGI (CCRF-CEM leukemia) of 1.86 µM. For the same molecule, the GI50 (HCT-116 colon) was 0.275 µM, the TGI (HCT-116 colon) was 1.38 µM and the GI50 (HCT-15 colon) was 0.31 µM. The TGI (HCT-15 colon) was 1.56 µM, the GI50 (OVCAR-4 ovarian) was 0.446 µM and the TGI (OVCAR-4 ovarian) was 17.5 µM. For the same molecule, the GI50 (NCI-H522 lung) was 0.0819 µM, the TGI (NCI-H522 lung) was 1.04 µM and the GI50 (NCI-H23 lung) was 0.395 µM. It also gave a TGI (NCI-H23 lung) of 18.8 µM, a GI50 (MCF7 breast) of 0.238 µM and a TGI (MCF7 breast) of 14.4 µM. It also gave a GI50 (OVCAR-8 ovarian) of 0.407 µM, a TGI (OVCAR-8 ovarian) greater than 100 µM and a GI50 (MALME-3M melanoma) of 1.42 µM. It also gave a TGI (MALME-3M melanoma) of 16.1 µM, a GI50 (OVCAR-3 ovarian) of 0.225 µM and a TGI (OVCAR-3 ovarian) of 0.602 µM. It also gave a GI50 (SR leukemia) of 0.164 µM, a TGI (SR leukemia) of 11.2 µM and a GI50 (U251 CNS) of 0.386 µM. For the same molecule, the TGI (U251 CNS) was 12 µM, the GI50 (TK-10 renal) was 1.02 µM and the TGI (TK-10 renal) was 7.51 µM. For the same molecule, the GI50 (SK-MEL-28 melanoma) was 1.62 µM, the TGI (SK-MEL-28 melanoma) was 12.5 µM and the GI50 (NCI-H460 lung) was 0.36 µM. It also gave a TGI (NCI-H460 lung) of 11.6 µM, a GI50 (HOP-62 NSCLC) of 0.4 µM and a TGI (HOP-62 NSCLC) of 14.1 µM. The GI50 (IGROV1 ovarian) was 0.473 µM, the TGI (IGROV1 ovarian) was 20.4 µM and the GI50 (SN12C renal) was 0.53 µM. For the same molecule, the TGI (SN12C renal) was 14.8 µM, the GI50 (HOP-92 NSCLC) was 0.247 µM and the TGI (HOP-92 NSCLC) was 10.3 µM. It also gave a GI50 (COLO 205 colon) of 0.769 µM, a TGI (COLO 205 colon) of 4.52 µM and a GI50 (CAKI-1 renal) of 0.503 µM. The TGI (CAKI-1 renal) was 15.6 µM, the GI50 (NCI/ADR-RES ovarian) was 0.339 µM and the TGI (NCI/ADR-RES ovarian) was 89.9 µM. The GI50 (HCC-2998 colon) was 0.416 µM, the TGI (HCC-2998 colon) was 6.79 µM and the GI50 (A498 renal) was 0.133 µM. The TGI (A498 renal) was 0.718 µM, the GI50 (EKVX NSCLC) was 0.625 µM and the TGI (EKVX NSCLC) was 19.3 µM. The GI50 (RXF 393 renal) was 0.389 µM, the TGI (RXF 393 renal) was 8.88 µM and the GI50 (HL-60(TB) leukemia) was 0.184 µM. It also gave a TGI (HL-60(TB) leukemia) of 0.654 µM, a GI50 (MOLT-4 leukemia) of 0.383 µM and a TGI (MOLT-4 leukemia) of 14.9 µM. It also gave a GI50 (SNB-75 CNS) of 0.308 µM and a TGI (SNB-75 CNS) of 21 µM.

Molecule `CCCCCCCCCCCCC[N+](C)(C)Cc1ccccc1` has a GI50 (ACHN renal) of 3.41 µM, a TGI (ACHN renal) of 12.8 µM and a GI50 (A549 NSCLC) of 1.61 µM. It also gave a TGI (A549 NSCLC) of 3.17 µM, a GI50 (OVCAR-5 ovarian) of 1.47 µM and a TGI (OVCAR-5 ovarian) of 2.92 µM. The GI50 (MDA-MB-231 breast) was 1.35 µM, the TGI (MDA-MB-231 breast) was 2.9 µM and the GI50 (M14 melanoma) was 1.04 µM. It also gave a TGI (M14 melanoma) of 2.4 µM, a GI50 (RPMI-8226 leukemia) of 0.451 µM and a TGI (RPMI-8226 leukemia) of 2.52 µM. The GI50 (SF-539 CNS) was 1.45 µM, the TGI (SF-539 CNS) was 2.97 µM and the GI50 (SF-295 CNS) was 1.42 µM. It also gave a TGI (SF-295 CNS) of 2.87 µM, a GI50 (786-0 renal) of 1.56 µM and a TGI (786-0 renal) of 3.07 µM. For the same molecule, the GI50 (BT-549 breast) was 1.13 µM, the TGI (BT-549 breast) was 2.42 µM and the GI50 (T-47D breast) was 0.336 µM. For the same molecule, the TGI (T-47D breast) was 1.71 µM, the GI50 (UACC-62 melanoma) was 0.633 µM and the TGI (UACC-62 melanoma) was 1.95 µM. It also gave a GI50 (UACC-257 melanoma) of 1.36 µM, a TGI (UACC-257 melanoma) of 2.85 µM and a GI50 (HT29 colon) of 0.493 µM. For the same molecule, the TGI (HT29 colon) was 1.93 µM, the GI50 (UO-31 renal) was 2.05 µM and the TGI (UO-31 renal) was 6.42 µM. The GI50 (SK-OV-3 ovarian) was 1.31 µM, the TGI (SK-OV-3 ovarian) was 2.6 µM and the GI50 (SK-MEL-5 melanoma) was 0.874 µM. For the same molecule, the TGI (SK-MEL-5 melanoma) was 2.11 µM, the GI50 (PC-3 prostate) was 0.306 µM and the TGI (PC-3 prostate) was 1.4 µM. It also gave a GI50 (HCT-116 colon) of 0.925 µM, a TGI (HCT-116 colon) of 2.14 µM and a GI50 (HCT-15 colon) of 5.08 µM. It also gave a TGI (HCT-15 colon) of 25.4 µM, a GI50 (TK-10 renal) of 0.871 µM and a TGI (TK-10 renal) of 2.21 µM. The GI50 (SK-MEL-28 melanoma) was 1.52 µM, the TGI (SK-MEL-28 melanoma) was 2.89 µM and the GI50 (IGROV1 ovarian) was 0.477 µM. The TGI (IGROV1 ovarian) was 1.82 µM, the GI50 (SN12C renal) was 1.2 µM and the TGI (SN12C renal) was 2.61 µM. It also gave a GI50 (HOP-92 NSCLC) of 0.338 µM, a TGI (HOP-92 NSCLC) of 1.83 µM and a GI50 (COLO 205 colon) of 1.14 µM. The TGI (COLO 205 colon) was 2.45 µM, the GI50 (CAKI-1 renal) was 4.99 µM and the TGI (CAKI-1 renal) was 23 µM. It also gave a GI50 (NCI/ADR-RES ovarian) of 18 µM, a TGI (NCI/ADR-RES ovarian) of 50.5 µM and a GI50 (A498 renal) of 1.44 µM. For the same molecule, the TGI (A498 renal) was 5.01 µM, the GI50 (EKVX NSCLC) was 1.57 µM and the TGI (EKVX NSCLC) was 4.52 µM. For the same molecule, the GI50 (RXF 393 renal) was 0.385 µM, the TGI (RXF 393 renal) was 1.6 µM and the GI50 (HL-60(TB) leukemia) was 0.68 µM. For the same molecule, the TGI (HL-60(TB) leukemia) was 2.15 µM, the GI50 (DU-145 prostate) was 1.42 µM and the TGI (DU-145 prostate) was 2.74 µM. It also gave a GI50 (SNB-75 CNS) of 1.5 µM and a TGI (SNB-75 CNS) of 2.97 µM.
